# Results: patent US12428406B2 (PMV Pharmaceuticals, Inc., priority 2019, dated 2025)
# Target: T1, p53 Y220C (Homo sapiens, UniProt P04637, Y220C)
# T1 construct: The recombinant protein was a truncation mutant containing only amino acids 94-312 of p53; made in house; host or cells: E. coli
# Assay: In vitro DNA binding activity assay (HTRF / TR-FRET): stabilization of p53 Y220C and increase of its DNA binding activity
# Type: biochemical
# Details: recombinant His-tagged p53 Y220C DNA binding domain (aa 94-312), biotin-labeled consensus DNA, incubated at 27° C. or 29° C. for 60 min
# How it was run: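 Stabilization of the mutant is inferred from increased binding of His-tagged p53 Y220C to a biotin-labeled consensus DNA, detected by HTRF with europium-streptavidin and APC-anti-His antibody. The concentration giving a 50% rise over compound-free binding is reported as SC150.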
# T1 sequence (P04637 94-312, change not shown): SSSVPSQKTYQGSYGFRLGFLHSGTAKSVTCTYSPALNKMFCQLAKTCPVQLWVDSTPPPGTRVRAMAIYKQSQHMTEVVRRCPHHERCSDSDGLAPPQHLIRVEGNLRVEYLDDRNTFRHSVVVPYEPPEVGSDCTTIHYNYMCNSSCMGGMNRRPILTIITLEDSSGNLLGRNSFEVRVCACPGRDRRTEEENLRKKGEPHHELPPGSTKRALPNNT
row,SMILES,SC150 (concentration of the compound required to increase the DNA binding activity by 50%)
1,"COCC(O)CN1CCC(Nc2cccc3c2cc(C#CCNc2ccc(S(C)(=O)=O)cc2OCF)n3CC(F)(F)F)CC1 (centres unmarked) [Compound 664A, 1-(4-{[2-(3-{[2-(fluoromethoxy)-4-methanesulfonylphenyl]amino}prop-1-yn-1-yl)-1-(2,2,2-trifluoroethyl)-1H-indol-4-yl]amino}piperidin-1-yl)-3-methoxypropan-2-ol]",+ (+ = 0 μM ≤ SC150 < 0.05 μM)
2,"COc1cc(C(N)=O)ccc1NCC#Cc1cc2c(N[C@H]3CC[C@@H](N4CC5(COC5)C4)CC3)cccc2n1CC(F)(F)F [Compound 213A, 3-methoxy-4-{[3-(4-{[(1S,4S)-4-{2-oxa-6-azaspiro[3.3]heptan-6-yl}cyclohexyl]amino}-1-(2,2,2-trifluoroethyl)-1H-indol-2-yl)prop-2-yn-1-yl]amino}benzamide]",+ (+ = 0 μM ≤ SC150 < 0.05 μM)
3,"CNC(=O)c1cc(OC)c(NCC#Cc2cc3c(N[C@H]4CC[C@H](N5CC6(COC6)C5)CC4)cccc3n2CC(F)(F)F)cc1F [Compound 275A, 2-fluoro-5-methoxy-N-methyl-4-{[3-(4-{[(1R,4R)-4-{2-oxa-6-azaspiro[3.3]heptan-6-yl}cyclohexyl]amino}-1-(2,2,2-trifluoroethyl)-1H-indol-2-yl)prop-2-yn-1-yl]amino}benzamide]",+ (+ = 0 μM ≤ SC150 < 0.05 μM)
4,"CNC(=O)c1ccc(NCC#Cc2cc3c(N[C@H]4CC[C@H](N5CC6(CCCOC6)C5)CC4)cccc3n2CC(F)(F)F)c(OC)c1 [Compound 318A, 3-methoxy-N-methyl-4-{[3-(4-{[(1R,4R)-4-{6-oxa-2-azaspiro[3.5]nonan-2-yl}cyclohexyl]amino}-1-(2,2,2-trifluoroethyl)-1H-indol-2-yl)prop-2-yn-1-yl]amino} benzamide]",+ (+ = 0 μM ≤ SC150 < 0.05 μM)
5,"COc1cc(C(N)=O)ccc1NCC#Cc1cc2c(NC(=O)NC3CCN(C)CC3)cccc2n1CC(F)(F)F [Compound 7A, 3-methoxy-4-{[3-(4-{[(1-methylpiperidin-4-yl)carbamoyl]amino}-1-(2,2,2-trifluoroethyl)-1H-indol-2-yl)prop-2-yn-1-yl]amino}benzamide]",++++ (++++ = 0.2 μM ≤ SC150 < 1 μM)
6,"CNC(=O)c1ccc(NCC#Cc2cc3c(N[C@H]4CC[C@H](N5CCOCC5)CC4)cccc3n2CC#N)c(OC)c1 [Compound 177A, 4-({3-[1-(cyanomethyl)-4-{[(1R,4R)-4-(morpholin-4-yl)cyclohexyl]amino}-1H-indol-2-yl]prop-2-yn-1-yl}amino)-3-methoxy-N-methyl-benzamide]",+ (+ = 0 μM ≤ SC150 < 0.05 μM)
7,"COc1cc(S(C)(=O)=O)ccc1NCC#Cc1cc2c(N[C@@H]3CCOC[C@@H]3F)cccc2n1CC(F)(F)F [Compound 1026A, N-[(3R,4R)-3-fluorooxan-4-yl]-2-{3-[(4-methanesulfonyl-2-methoxyphenyl)amino]prop-1-yn-1-yl}-1-(2,2,2-trifluoroethyl)-1H-indol-4-amine]",+ (+ = 0 μM ≤ SC150 < 0.05 μM)
8,"CN(C)[C@H]1CC[C@H](Nc2cccc3c2cc(C#CCOc2ccc(S(C)(=O)=O)cc2N)n3CC(F)(F)F)CC1 [Compound 100A, (1R,4R)-N^4-{2-[3-(2-amino-4-methane-sulfonylphenoxy)prop-1-yn-1-yl]-1-(2,2,2-trifluoroethyl)-1H-indol-4-yl}-N^1,N^1-dimethylcyclohexane-1,4-diamine]",+ (+ = 0 μM ≤ SC150 < 0.05 μM)
9,"COc1cc(S(C)(=O)=O)ccc1NCC#Cc1cc2c(NC3CCN(C4CC4)CC3)cccc2n1CC(F)(F)F [Compound 720A, N-(1-cyclopropylpiperidin-4-yl)-2-{3-[(4-methanesulfonyl-2-methoxyphenyl)amino]prop-1-yn-1-yl}-1-(2,2,2-trifluoroethyl)-1H-indol-4-amine]",+ (+ = 0 μM ≤ SC150 < 0.05 μM)
10,COc1cc(S(C)(=O)=O)ccc1NCC#Cc1cc2c(N[C@H]3CCN(C)C[C@@H]3F)cccc2n1CC(F)(F)F [Compound 771A],+ (+ = 0 μM ≤ SC150 < 0.05 μM)
11,"CN(C)[C@H]1CC[C@H](Nc2cccc3c2cc(C#CCNc2ccc(S(N)(=O)=O)cc2OCC#N)n3CC(F)(F)F)CC1 [Compound 123A, 3-(cyanomethoxy)-4-{[3-(4-{[(1R,4R)-4-(dimethylamino)cyclohexyl]amino}-1-(2,2,2-trifluoroethyl)-1H-indol-2-yl)prop-2-yn-1-yl]amino}benzene-1-sulfonamide]",+ (+ = 0 μM ≤ SC150 < 0.05 μM)
12,Cc1cc(S(C)(=O)=O)ccc1NCC#Cc1cc2c(N[C@H]3CC[C@H](N(C)C)CC3)cccc2n1CC(F)(F)F [Compound 140A],+ (+ = 0 μM ≤ SC150 < 0.05 μM)
13,"COc1cc(S(N)(=O)=O)ccc1NCC#Cc1cc2c(NC3CCN(C[C@H]4COC(=O)O4)CC3)cccc2n1CC(F)(F)F [Compound 759A, 3-methoxy-4-[(3-{4-[(1-{[(4S)-2-oxo-1,3-dioxolan-4-yl]methyl}piperidin-4-yl)amino]-1-(2,2,2-trifluoroethyl)-1H-indol-2-yl}prop-2-yn-1-yl)amino]benzene-1-sulfonamide]",+ (+ = 0 μM ≤ SC150 < 0.05 μM)
14,"COc1cc(C(=O)NC[C@H](O)CO)ccc1NCC#Cc1cc2c(N[C@@H]3CCN(C)C[C@@H]3F)cccc2n1CC(F)(F)F [Compound 964A, N-[(2S)-2,3-dihydroxypropyl]-4-{[3-(4-{[(3S,4R)-3-fluoro-1-methylpiperidin-4-yl]amino}-1-(2,2,2-trifluoroethyl)-1H-indol-2-yl)prop-2-yn-1-yl]amino}-3-methoxybenzamide]",+ (+ = 0 μM ≤ SC150 < 0.05 μM)
15,"COc1cc(S(N)(=O)=O)ccc1NCC#Cc1cc2c(N[C@H]3CC[C@H](N4CCC(OC)C4)CC3)cccc2n1CC(F)(F)F (stereo partly drawn) [Compound 427A, 3-methoxy-4-{[3-(4-{[(1R,4R)-4-(3-methoxypyrrolidin-1-yl)cyclohexyl]amino}-1-(2,2,2-trifluoroethyl)-1H-indol-2-yl)prop-2-yn-1-yl]amino}benzene-1-sulfonamide]",+ (+ = 0 μM ≤ SC150 < 0.05 μM)
16,"NS(=O)(=O)c1ccc(NCC#Cc2cc3c(N[C@H]4CC[C@H](N5CC6(COC6)C5)CC4)cccc3n2CC(F)(F)F)c(OCF)c1 [Compound 261A, 3-(fluoromethoxy)-4-{[3-(4-{[(1R,4R)-4-{2-oxa-6-azaspiro[3.3]heptan-6-yl}cyclo-hexyl]amino}-1-(2,2,2-trifluoroethyl)-1H-indol-2-yl)prop-2-yn-1-yl]amino}benzene-1-sulfonamide]",+ (+ = 0 μM ≤ SC150 < 0.05 μM)
17,COCC(=O)N1CCC(Nc2cccc3c2cc(C#CCNc2ccc(S(N)(=O)=O)cc2OC)n3CC(F)(F)F)CC1 [Compound 575A],+ (+ = 0 μM ≤ SC150 < 0.05 μM)
18,"COc1cc(S(=O)(=O)NC(C)=O)ccc1NCC#Cc1cc2c(N[C@H]3CC[C@H](N(C)C)CC3)cccc2n1CC(F)(F)F [Compound 83A, N-(3-methoxy-4-{[3-(4-{[(1R,4R)-4-(dimethylamino)cyclohexyl]amino}-1-(2,2,2-trifluoroethyl)-1H-indol-2-yl)prop-2-yn-1-yl]amino}benzenesulfonyl)acetamide]",+ (+ = 0 μM ≤ SC150 < 0.05 μM)
19,"COc1cc(C(=O)NC2CCOCC2)ccc1NCC#Cc1cc2c(N[C@H]3CCN(C)C[C@H]3F)cccc2n1CC(F)(F)F (racemic) [Compound 818A, rac-4-{[3-(4-{[(3R,4S)-3-fluoro-1-methylpiperidin-4-yl]amino}-1-(2,2,2-trifluoroethyl)-1H-indol-2-yl)prop-2-yn-1-yl]amino}-3-methoxy-N-(oxan-4-yl)benzamide]",+ (+ = 0 μM ≤ SC150 < 0.05 μM)
20,"COc1cc(C(C)(C)C#N)ncc1NCC#Cc1cc2c(NC3CCS(=O)(=O)CC3)cccc2n1CC(F)(F)F [Compound 1034A, 2-{5-[(3-{4-[(1,1-dioxo-1λ^6-thian-4-yl)amino]-1-(2,2,2-trifluoroethyl)-1H-indol-2-yl}prop-2-yn-1-yl)amino]-4-methoxypyridin-2-yl}-2-methylpropanenitrile]",+ (+ = 0 μM ≤ SC150 < 0.05 μM)
21,"COc1cc(S(C)(=O)=O)ccc1NCC#Cc1cc2c(NC3CCN([C@@H]4CCOC4)CC3)cccc2n1CC(F)(F)F [Compound 722A, 2-{3-[(4-methanesulfonyl-2-methoxyphenyl)amino]prop-1-yn-1-yl}-N-{1-[(3R)-oxolan-3-yl]piperidin-4-yl}-1-(2,2,2-trifluoroethyl)-1H-indol-4-amine]",+ (+ = 0 μM ≤ SC150 < 0.05 μM)
22,"COc1cc(S(C)(=O)=O)ccc1NCC#Cc1cc2c(N[C@H]3CC[C@H](N4CC5(CCCOC5)C4)CC3)cccc2n1CC(F)(F)F [Compound 322A, 2-{3-[(4-methane-sulfonyl-2-methoxy-phenyl)amino]prop-1-yn-1-yl}-N-[(1R,4R)-4-{6-oxa-2-azaspiro[3.5]nonan-2-yl}cyclohexyl]-1-(2,2,2-trifluoroethyl)-1H-indol-4-amine]",+ (+ = 0 μM ≤ SC150 < 0.05 μM)
23,"COc1cc(S(C)(=O)=O)ccc1NCC#Cc1cc2c(N[C@H]3CC[C@@H](N4CC5(CCOCC5)C4)CC3)cccc2n1CC(F)(F)F [Compound 293A, 2-{3-[(4-methane-sulfonyl-2-methoxy-phenyl)amino]prop-1-yn-1-yl}-N-[(1S,4S)-4-{7-oxa-2-azaspiro[3.5]nonan-2-yl}cyclo-hexyl]-1-(2,2,2-trifluoro-ethyl)-1H-indol-4-amine]",+ (+ = 0 μM ≤ SC150 < 0.05 μM)
